Key:
[1] = Pectin / calcium acetate supplementation in human males: body weight and BMI; assay type: in vivo
Description: The acetate supplement (phase 2), however, caused a decrease (from 88.16±12.35 kg to 83.09±10.80 kg) in body weight. Although this decrease may not be of statistical significance, it can be clinically significant in the cases of those subjects who lost weight.

[2] = Supplementation in human males: metabolic variables; details: for FFA: free fatty acids; for IR: insulin resistance; for TP: total protein
Description: (§1) The respective effects of pectin and an acetate when administered to the colon of a mammal were determined during a first experiment. The experiment was conducted in the following two phases: [drawing 1]
(§2) Twenty human males participated in the experimentation and these subjects were not on any medication for any chronic diseases at the time, and also had no history of cardiovascular disease. All the subjects were at the time following a relatively high fibre, low fat diet. During the first phase ten subjects consumed a total of 15 grams of pectin per day in four aliquots, while the other ten consumed a total of 15 grams of placebo (starch) per day in four aliquots.
(§3) During the second phase, the first group consumed a total of 7.5 grams of calcium acetate per day in four aliquots and the second group consumed a total of 15 grams of pectin per day in four aliquots. The calcium acetate was administered in capsules which were coated with a protective coating comprising a resin known commercially as shellac. This protective coating is resistant to digestion and solution in the stomach and small intestines, is but not resistant to the enzymes of the organisms usually found in the colon, so that the calcium acetate was thus released in the colon.
(§4) Blood samples where taken from the subjects after each phase and a large number of variables where tested.

fibrin clot = test: Supplementation in human males: haemostatic variables and characteristics of fibrin networks developed in plasma; assay type: in vivo; details: for CLOT (FIBRIN): clot fibrin content; for LYSIS TIME (t 50%): clot; for COMPACTION: fibrin clot; for MPC: macromolecular protein complex; for μ,: mass length ratio from turbidity; for FIBRINOGEN: plasma
Description: as §1, §2, §3, §4

[3] = Supplementation in human males: haemorheological variables (haematocrit, haemoglobin, plasma viscosity); assay type: in vivo; details: for VISCOSITY: plasma
Description: as §1, §2, §3, §4

[4] = Pectin / calcium acetate supplementation in human males: body weight and BMI; assay type: in vivo; remark: listed apart in the source
blood lipids = test: Supplementation in human males: lipid variables; assay type: in vivo; details: for TC: total cholesterol; for TG: triglycerides
Description: as §1, §2, §3, §4

[5] = phase 2, end of supplementation (pectin 15 g/day; calcium acetate 7.5 g/day)
[6] = phase 1, end of supplementation (pectin 15 g/day)

In the case of pectin, the BMI ([1]; phase 2, baseline) was 29.46 kg/m^2, the “BODY WEIGHT” value ([1]; phase 2, baseline) was 92.07 kg and the BMI [1, 5] was 29.32 kg/m^2. The “BODY WEIGHT” value [1, 5] was 91.55 kg, the FFA ([2]; phase 1, baseline) was 0.39 mmol/L and the FFA [2, 6] was 0.31 ± mmol/l. The FFA ([2]; phase 2, baseline) was 0.48 mmol/L, the FFA [2, 5] was 0.40 ± mmol/l and the IR ([2]; phase 1, baseline) was 4.29. The IR [2, 6] was 4.16, the IR ([2]; phase 2, baseline) was 9.40 and the IR [2, 5] was 5.77. For the same substance, the ALBUMIN ([2]; phase 1, baseline) was 47.23 g/L, the GLUCOSE ([2]; phase 1, baseline) was 3.98 mmol/L and the INSULIN ([2]; phase 1, baseline) was 10.95 μU/ml. The PPA/ALB ([2]; phase 1, baseline) was 8.26 × 10^1, the ALBUMIN [2, 6] was 47.79 g/L and the GLUCOSE [2, 6] was 3.72 mmol/L. For the same substance, the INSULIN [2, 6] was 11.25 μU/ml, the PPA/ALB [2, 6] was 6.49 ± × 10^1 and the ALBUMIN ([2]; phase 2, baseline) was 45.53 g/L. The GLUCOSE ([2]; phase 2, baseline) was 4.29 mmol/L, the INSULIN ([2]; phase 2, baseline) was 18.55 μU/ml and the PPA/ALB ([2]; phase 2, baseline) was 10.50 × 10^1. For the same substance, the ALBUMIN [2, 5] was 45.48 ± g/l, the GLUCOSE [2, 5] was 4.00 mmol/L and the INSULIN [2, 5] was 13.83 μU/ml. The PPA/ALB [2, 5] was 8.78 ± × 10^1, the TP ([2]; phase 1, baseline) was 60.55 g/L and the TP [2, 6] was 66.84 g/L. The TP ([2]; phase 2, baseline) was 72.36 g/L, the TP [2, 5] was 75.21 g/L and the “CLOT (FIBRIN)” value (fibrin clot; phase 1, baseline) was 2.22 g/L. The “CLOT (FIBRIN)” value (fibrin clot; [6]) was 1.90 ± g/l, the “CLOT (FIBRIN)” value (fibrin clot; phase 2, baseline) was 2.55 g/L and the “CLOT (FIBRIN)” value (fibrin clot; [5]) was 1.86 ± g/l. For the same substance, the “LYSIS TIME (t 50%)” value (fibrin clot; phase 1, baseline) was 285.6, the “LYSIS TIME (t 50%)” value (fibrin clot; [6]) was 232.9 ± and the “LYSIS TIME (t 50%)” value (fibrin clot; phase 2, baseline) was 285.6. The “LYSIS TIME (t 50%)” value (fibrin clot; [5]) was 132.9 ±, the COMPACTION (fibrin clot; phase 1, baseline) was 21.51% and the COMPACTION (fibrin clot; [6]) was 30.16 ± %. For the same substance, the COMPACTION (fibrin clot; phase 2, baseline) was 20.67%, the COMPACTION (fibrin clot; [5]) was 31.53 ± % and the MPC (fibrin clot; phase 1, baseline) was 0.1218 g/L. The MPC (fibrin clot; [6]) was 0.0836 ± g/l, the MPC (fibrin clot; phase 2, baseline) was 0.1002 g/L and the MPC (fibrin clot; [5]) was 0.0807 ± g/l. For the same substance, the “μ,” value (fibrin clot; phase 1, baseline) was 19.94 Dal/cm × 10^12, the “μ,” value (fibrin clot; [6]) was 24.80 ± Dal/cm × 10^12 and the “μ,” value (fibrin clot; phase 2, baseline) was 19.02 Dal/cm × 10^12. The “μ,” value (fibrin clot; [5]) was 32.10 ± Dal/cm × 10^12, the FIBRINOGEN (fibrin clot; phase 1, baseline) was 3.51 g/L and the FIBRINOGEN (fibrin clot; [6]) was 3.30 g/L. It also gave an FIBRINOGEN (fibrin clot; phase 2, baseline) of 4.11 g/L, an FIBRINOGEN (fibrin clot; [5]) of 3.72 g/L and an HAEMATOCRIT ([3]; phase 1, baseline) of 48.70%. For the same substance, the HAEMOGLOBIN ([3]; phase 1, baseline) was 10.30 mmol/L, the HAEMATOCRIT [3, 6] was 48.10% and the HAEMOGLOBIN [3, 6] was 9.60 ± mmol/l. It also gave an HAEMATOCRIT ([3]; phase 2, baseline) of 47.38%, an HAEMOGLOBIN ([3]; phase 2, baseline) of 10.82 mmol/L and an HAEMATOCRIT [3, 5] of 45.39%. The HAEMOGLOBIN [3, 5] was 9.75 ± mmol/l, the VISCOSITY ([3]; phase 1, baseline) was 1.81 cP and the VISCOSITY [3, 6] was 1.60 ± cP. For the same substance, the VISCOSITY ([3]; phase 2, baseline) was 1.75 cP, the VISCOSITY [3, 5] was 1.62 ± cP and the weight reduction ([4]; pectin supplemented subject group) was “No weight reduction”. The BMI ([4]; phase 1, baseline) was 27.50 kg/m^2, the “BODY WEIGHT” value ([4]; phase 1, baseline) was 89.50 kg and the BMI [4, 6] was 27.40 kg/m^2. For the same substance, the “BODY WEIGHT” value [4, 6] was 89.10 kg, the “decrease in hydrogen peroxide (free radical) content of blood lipids” value (blood lipids; pectin supplementation) was 49% and the “% HDL-C” value (blood lipids; phase 1, baseline) was 18.30%. The ApoA (blood lipids; phase 1, baseline) was 1.60 mmol/L, the ApoB (blood lipids; phase 1, baseline) was 1.70 mmol/L and the HDL-C (blood lipids; phase 1, baseline) was 1.20 mmol/L. For the same substance, the LDL-C (blood lipids; phase 1, baseline) was 4.70 mmol/L, the TBARM (blood lipids; phase 1, baseline) was 0.60 µM and the “hydrogen peroxide (H2O2)” value (blood lipids; phase 1, baseline) was 1.70 µM. The “% HDL-C” value (blood lipids; [6]) was 18.20 ± %, the ApoA (blood lipids; [6]) was 1.23 ± mmol/l and the ApoB (blood lipids; [6]) was 1.29 ± mmol/l. The HDL-C (blood lipids; [6]) was 1.03 ± mmol/l, the LDL-C (blood lipids; [6]) was 4.10 ± mmol/l and the TBARM (blood lipids; [6]) was 0.30 µM. For the same substance, the “hydrogen peroxide (H2O2)” value (blood lipids; [6]) was 0.84 ± μM, the “% HDL-C” value (blood lipids; phase 2, baseline) was 15.46% and the ApoA (blood lipids; phase 2, baseline) was 1.53 mmol/L. For the same substance, the ApoB (blood lipids; phase 2, baseline) was 1.77 mmol/L, the HDL-C (blood lipids; phase 2, baseline) was 0.92 mmol/L and the LDL-C (blood lipids; phase 2, baseline) was 5.17 mmol/L. The TBARM (blood lipids; phase 2, baseline) was 2.06 µM, the “hydrogen peroxide (H2O2)” value (blood lipids; phase 2, baseline) was 1.20 µM and the “% HDL-C” value (blood lipids; [5]) was 18.79 ± %. The ApoA (blood lipids; [5]) was 1.39 ± mmol/l, the ApoB (blood lipids; [5]) was 1.39 ± mmol/l and the HDL-C (blood lipids; [5]) was 1.13 ± mmol/l. The LDL-C (blood lipids; [5]) was 4.59 mmol/L, the TBARM (blood lipids; [5]) was 0.61 ± μM and the “hydrogen peroxide (H2O2)” value (blood lipids; [5]) was 0.73 ± μM. The TC (blood lipids; phase 1, baseline) was 6.50 mmol/L, the TC (blood lipids; [6]) was 5.67 ± mmol/l and the TC (blood lipids; phase 2, baseline) was 6.89 mmol/L. The TC (blood lipids; [5]) was 6.07 mmol/L, the TG (blood lipids; phase 1, baseline) was 2.00 mmol/L and the TG (blood lipids; [6]) was 1.78 mmol/L. For the same substance, the TG (blood lipids; phase 2, baseline) was 1.99 mmol/L and the TG (blood lipids; [5]) was 1.78 mmol/L.
